Experimental findings from the METLIN SMRT retention time set (Domingo-Almenara et al. 2019) are described below.

The data set is described as follows: gradient 5% acetonitrile 3 min, to 50% in 2 min, to 85% in 15 min, held 3 min, 100 µL/min. The note with it: column: Zorbax Extend-C18 2.1 x 50 mm; eluents: water / acetonitrile, 0.1% formic acid. The method, boiled down:
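Retention times of pure standards were taken from adduct peaks that were selected by computer and manually inspected. Over 3 months, mixtures of ~100 molecules were run by HPLC–quadrupole time-of-flight mass spectrometry in positive and negative ionization mode. The Zorbax Extend-C18 column (2.1 × 50 mm, 1.8 μm) ran at 100 μL/min in water and acetonitrile, each containing 0.1% formic acid, with 40 μL dead volume and 900 μL dwell volume.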
`CCc1ccc(S(=O)(=O)Nc2ccc(C3(C(=O)NCC4CCCO4)CC3)cc2)cc1` (stereo not given) displayed an RP-LC retention time of 867 s.

Regarding `CC(C)CNC(=O)CCc1nc2ccccc2n(CC(=O)N2CCCc3ccccc32)c1=O`, the RP-LC retention time worked out at 990 s.

`C=Cc1ccc(CN2CCCN(c3ncccc3-c3nc(C(C)C)no3)CC2)cc1`: the RP-LC retention time was found to be 785 s.

`Cc1ccc(N2CCC(NC(=O)c3cc(F)cc(F)c3)C2=O)cc1` (stereo not given) showed an RP-LC retention time of 858 s.

On to `O=C(CCC1CCCC1)Nc1nc(-c2ccccc2)cs1`, for which the RP-LC retention time is 1180 s.

The compound `Cc1ccccc1Oc1nccn2c(=O)n(CC(=O)Nc3ccc(Cl)c(Cl)c3)nc12` came in with an RP-LC retention time of 996 s.

The compound `Cc1ccc(CN2C[C@@H]3C(=O)N(CCc4ccccc4)C(=O)[C@@H]3C2)cc1` yielded an RP-LC retention time of 760 s.

Regarding `COc1ccc(OC)c(CNC(=O)C2CCN(c3ncnc4c3oc3ccccc34)CC2)c1`, the RP-LC retention time stood at 754 s.

With `O=C(Nc1cccc(F)c1)N1CCC(CCNC(=O)C2(c3ccccc3)CC2)CC1`, the RP-LC retention time was 883 s.

On to `CCOC(=O)c1c(S(=O)(=O)N2CCC(C(=O)NCc3cccc(C)c3)CC2)c(C)n(C)c1C`, for which the RP-LC retention time was 841 s.

With `COc1cc(NC(=O)N2CCN(c3ccc(=O)n(-c4ccc(C)cc4)n3)CC2)cc(OC)c1OC`, the RP-LC retention time was found to be 749 s.

Turning to `CC(C)c1ccc(C(=O)NCC(=O)Nc2nc3ccccc3[nH]2)cc1`, the RP-LC retention time worked out at 688 s.

In the case of `CC(C)c1ccc(-c2cc3c4nn(CC(=O)NC5CCCC5)c(=O)n4ccn3n2)cc1`, the RP-LC retention time stood at 983 s.

As to `COc1ccc(-c2nc(-c3ccc4c(c3)oc(=O)n4C(C)C)no2)c(OC)c1`, the RP-LC retention time was found to be 1080 s.

In the case of `CCN1c2ccc(F)cc2C(=O)NC12CCN(C(=O)c1ccccc1)CC2`, the RP-LC retention time was 763 s.

For `OC[C@H]1O[C@@H](c2ccc(Cl)c(Cc3ccc(O[C@H]4CCOC4)cc3)c2)[C@H](O)[C@@H](O)[C@@H]1O`, the RP-LC retention time turned out to be 736 s.

In turn, `COc1ccc(-c2noc(-c3ccc(=O)n(Cc4ccccn4)c3)n2)cc1OC` gave an RP-LC retention time of 743 s.

In turn, `O=C(CC1CCCCC1)N1CCC(c2ccncc2)CC1` registered an RP-LC retention time of 622 s.

In the case of `Cc1oc2ncn(CC(C)C)c(=O)c2c1C(=O)N1CCN(c2ccccn2)CC1`, the RP-LC retention time stood at 568 s.

In the case of `CCN(CC)C(=O)CN(C)C(=O)c1cc2c(s1)N(CC1CC1)CCCC2`, the RP-LC retention time stood at 947 s.

Compound `O=c1oc2cc(S(=O)(=O)NCCO)ccc2c2ccc(S(=O)(=O)NCCO)cc12` displayed an RP-LC retention time of 589 s.

`CCOc1ccc(-n2c(N3CCSCC3)nc3cc(C(=O)OC)ccc3c2=O)cc1` had an RP-LC retention time of 800 s.

Compound `CCOc1ccccc1NC(=O)NC1CCN(c2cc(N3CCCC3)cnn2)C1` (stereo not given) yielded an RP-LC retention time of 594 s.

Compound `CCCCSc1cc(C)nc(N)n1` yielded an RP-LC retention time of 698 s.

With `COc1ccc(OC)c(CN2C(=O)c3ccccc3C2C(=O)NCC2CCCO2)c1` (stereo not given), the RP-LC retention time was 641 s.

Compound `CC(C)(C)n1nnnc1C1CC2(CCOCC2)C(=O)N1Cc1ccc(F)cc1F` (stereo not given) yielded an RP-LC retention time of 809 s.

In turn, `CC(C)c1ccc(NC(=O)C2CCCN(c3cc(=O)n(C)c(=O)n3C)C2)cc1` (stereo not given) yielded an RP-LC retention time of 829 s.

`O=C(c1cc2ccccc2[nH]1)N1CCOCC1`: the RP-LC retention time worked out at 713 s.

On to `O=C(NCc1ccccc1)C1CCc2nc(N3CCN(C(=O)C4CCC4)CC3)sc2C1` (stereo not given), for which the RP-LC retention time is 578 s.

For the compound `CCN(CC)CC(C)(C)C(=O)/C=C/c1ccc(C)cc1`, the RP-LC retention time is 684 s.

Compound `COc1ccccc1CNC(=O)C1CCN(S(=O)(=O)c2ccc3c(c2)CCCC(=O)N3)CC1` yielded an RP-LC retention time of 816 s.

`O=C(c1cccs1)N1CCc2c([nH]c3ccccc23)C1c1ccc(F)cc1` (stereo not given) gave an RP-LC retention time of 1150 s.

Compound `CCOC(=O)c1ccc(NC(=O)c2cc3sc(Cl)cc3n2CC)cc1` yielded an RP-LC retention time of 1260 s.

For the compound `O=C(NC1CCc2nnc(C3CC3)n2CC1)c1ccsc1` (stereo not given), the RP-LC retention time was found to be 594 s.

Compound `c1ccc(CN2CCC3(CCCc4ccccc43)CC2)cc1` had an RP-LC retention time of 834 s.

`C=CCc1cc(OC)ccc1OCC(O)CN1CCN(c2ccc(OC)cc2)CC1` (stereo not given): the RP-LC retention time stood at 597 s.

Take `CCOC(=O)N1CCN(c2nc(F)c3c(c2F)S(=O)(=O)CCN3Cc2ccco2)CC1`: the RP-LC retention time worked out at 962 s.

`CCOC(=O)/C=C/c1c(C)[nH]c(=O)[nH]c1=O` came in with an RP-LC retention time of 610 s.

`COc1ccc(NC(=O)Cn2ccc3ccc(-c4nnc(C)o4)cc32)cc1` displayed an RP-LC retention time of 937 s.

`Cc1c(Cl)cccc1S(=O)(=O)N1CCCC1c1nc(-c2cccc(F)c2)no1` (stereo not given) showed an RP-LC retention time of 1220 s.

Turning to `C=CCn1ccn(-c2ccc(F)c(Cl)c2)c(=O)c1=O`, the RP-LC retention time was determined as 652 s.

In the case of `CCC(C)NC(=O)C1CCN(S(=O)(=O)c2c(C)[nH]c(C)c2C(=O)N2CCCCC2)CC1` (stereo not given), the RP-LC retention time came out at 672 s.

On to `CO[C@H]1CN(C2CCN(S(=O)(=O)Cc3ccccc3F)CC2)[C@H]1c1ccncc1`, for which the RP-LC retention time stood at 620 s.

The compound `Cc1ccc(CNC(=O)c2nsc(C(=O)N3CCN(c4ccccn4)CC3)c2N)cc1` yielded an RP-LC retention time of 681 s.

With `O=S(=O)(c1cccc(-c2nnc(SC/C=C/c3ccccc3)o2)c1)N1CCOCC1`, the RP-LC retention time amounted to 980 s.

Compound `CCOc1ccc(S(=O)(=O)N2CCC(C(=O)Nc3ccc(F)c(Cl)c3)CC2)cc1` had an RP-LC retention time of 1030 s.

In turn, `O=C(c1ccc(OCCCc2cnc[nH]2)cc1)C1CC1` had an RP-LC retention time of 680 s.

With `CCCn1c(=O)c(-c2ccc(C(=O)NCCOC)cc2)nc2cccnc21`, the RP-LC retention time came to 796 s.

In turn, `CC(C)(C)c1cc(C(=O)NC2CCCCC2)nc2ccnn12` registered an RP-LC retention time of 1240 s.

Consider `O=C(c1ccc(Br)o1)N1CCC(n2cnnc2C2CC2)CC1`, for which the RP-LC retention time was determined as 631 s.

As to `O=C(NCCc1ccco1)c1ccc2c(c1)nc1n2CCCCC1`, the RP-LC retention time was 611 s.

As for `COc1cccc(NC(=O)Cn2nc3cc(C)nc(-c4ccccc4)n3c2=O)c1`, the RP-LC retention time was found to be 803 s.

`CC1(C)N=C(N)N=C(N)N1c1ccc(OCCCOc2ccccc2)c(Cl)c1` gave an RP-LC retention time of 812 s.

Turning to `O=C(NCc1cscn1)C1CCN(S(=O)(=O)c2cccc(Cl)c2)CC1`, the RP-LC retention time was determined as 747 s.

For `COC(=O)c1ccc(Cl)cc1NC(=O)N1CCN(Cc2nc3cc(Cl)ccc3o2)CC1`, the RP-LC retention time was determined as 1150 s.

On to `Cc1ccc(-n2nc3c(N4CCCC(C(=O)NCCc5ccccc5)C4)nnc(C)c3c2C)cc1` (stereo not given), for which the RP-LC retention time came to 766 s.

As to `Cc1cccn2cc(C(=O)NCc3ccc(F)cc3F)nc12`, the RP-LC retention time is 733 s.

`COCC(=O)Nc1ccc(SCc2nnc(-c3ccc4c(c3)OCO4)o2)cc1` yielded an RP-LC retention time of 789 s.

`C=CCNC(=O)c1cn(-c2cc(-c3nc(C(C)(C)C)no3)ccn2)cn1`: the RP-LC retention time was found to be 879 s.

In the case of `Cc1cccc(C(=O)Nc2c(-c3ccccc3)nc3cc(C)ccn23)c1`, the RP-LC retention time came to 674 s.

Take `CC(=O)Nc1ccc(C(=O)N2CCCCCC2)o1`: the RP-LC retention time amounted to 665 s.

As for `O=C(CCc1cc(Cl)no1)N1CCC(c2nc(C3CCOCC3)no2)C1` (stereo not given), the RP-LC retention time is 701 s.

`COc1cccc(-c2csc(Cc3nc(-c4cccs4)no3)n2)c1` displayed an RP-LC retention time of 1020 s.

Compound `COc1ccc(N2CC(c3nc(-c4ccc(C(F)(F)F)cc4)no3)CC2=O)cc1OC` (stereo not given) gave an RP-LC retention time of 963 s.

For `O=C(NCc1csc(-c2ccccc2)n1)C1CCN(S(=O)(=O)c2ccc3[nH]c(=O)oc3c2)CC1`, the RP-LC retention time stood at 758 s.

Consider `CC(C)NC(=O)C1(c2ccc(NC(=O)C(C)C)cc2)CCCCC1`, for which the RP-LC retention time turned out to be 851 s.

In the case of `Cc1cc(NC(=O)Cn2ccn3nc(-c4ccc(F)cc4)c(CO)c3c2=O)n[nH]1`, the RP-LC retention time is 666 s.

`Cc1ccc2nc(-c3ccc(Cl)cc3)c(Nc3ccccc3C)n2c1` returned an RP-LC retention time of 890 s.

`O=C(Nc1cccc(C(F)(F)F)c1)NC1CCN(c2ccc(F)cc2)C1=O` (stereo not given) came in with an RP-LC retention time of 923 s.

For the compound `COc1ccc(S(=O)(=O)N2CCC(n3cnnc3C(C)C)CC2)cc1`, the RP-LC retention time is 694 s.

The compound `COc1ccc(OC)c(NS(=O)(=O)c2cc3n(c2)CCCNC3=O)c1` showed an RP-LC retention time of 639 s.

`O=C(NC1CCCCC1)N1CCC(c2noc(-c3ccccn3)n2)C1` (stereo not given) had an RP-LC retention time of 734 s.

With `O=C(COc1ccccc1F)Nc1ccc2c(c1)CCC(=O)N2Cc1ccccc1`, the RP-LC retention time came out at 860 s.

Compound `O=C(Cn1ccn2nc(-c3ccc(F)cc3)c(CO)c2c1=O)NC1CCCC1` came in with an RP-LC retention time of 770 s.

Turning to `CCCNC(=O)c1cccc(-c2nc3cccnc3n2CCC)c1`, the RP-LC retention time turned out to be 705 s.

Regarding `CCn1cc(CCNC(=O)Nc2ccccc2Br)c2cccnc21`, the RP-LC retention time was 774 s.

Turning to `Cc1cc(C(F)(F)F)nn1CC(=O)NCC1Cn2cccc2CN1C` (stereo not given), the RP-LC retention time was found to be 726 s.

`CC1CCN(S(=O)(=O)c2ccc3nn(CCc4ccccc4)c(=O)n3c2)CC1` yielded an RP-LC retention time of 1020 s.

In turn, `CSc1ccc(-c2nc3cc(C)ccn3c2NC2CCCCC2)cc1` had an RP-LC retention time of 896 s.

Regarding `COCCN1CCC(N2CCN(S(=O)(=O)c3ccc(F)c(Cl)c3)CC2)C1=O` (stereo not given), the RP-LC retention time came out at 620 s.
